Consider three molecules from patent US8168672B2, “Thioamide derivatives as progesterone receptor modulators” (Wyeth, priority 2004, dated 2012).

What is called EC50 is the concentration needed to bring the measured effect to its halfway point. Higher therefore signals a need for much substance. A word on the IC50: it is the midpoint of a concentration-inhibition curve.

Data set [1] can be described thus: Solubility in dimethylsulfoxide (observation during characterisation). Format: physicochemical. As for the experimental part:
A 5-L round-bottomed flask equipped with a mechanical stirrer and a reflux condenser was charged with the isolated solid (16.5 g) and acetone (2700 mL) was added in portions via the condenser while the suspension was heated to reflux. The reflux condenser was replaced with a regular one and acetone was distilled off. After distilling 2130 mL of acetone, the formed slurry was cooled to room temperature, stirred overnight, and filtered on a sintered-glass funnel to give a dark-yellow, crystalline, sandy solid. The filtered solid was dried at 40° C. in vacuo to give 12.5 g (76% recrystallization yield; 38% total yield) of 5-(4,4-dimethyl-2-thioxo-1,4-dihydro-2H-3,1-benzoxazin-6-yl)-1-methyl-1H-pyrrole-2-carbothioamide. LC purity: 95.94%; 1.65% NSP-989; rrt 0.88. LC-MS: 331 (M^+); impurity 297 (NSP-989). Mp: particles of various shapes; small particles melted 210-215° C.; next 218-220° C.; final melt 223-226° C. IR (KBr, cm^−1): 3375, 3269, 3165, 2211, 1624, 1610, 1540, 1526, 1466, 1370, 1294, 1261, 1186, 1114, 1086, 959, 880, 822, 779. ^1H NMR (DMSO-d6, ppm): 12.28 (s, 1H), 9.22 (s, 1H, S═CNH2), 8.97 (s, 1H, S═CNH2), 7.41 (d, 1H, J=7.05 Hz), 7.40 (s, 1H), 7.12 (d, 1H, J=8.85 Hz), 6.72 (d, 1H, J=3.9 Hz), 6.23 (d, 1H, J=3.9 Hz), 3.83 (s, 3H), 1.68 (s, 6H).

For data set [2], the system named is alkaline phosphatase activity in T47D cells. Description: T47D cytosol alkaline phosphatase assay (progestin/agonist mode). In kind it is cell-based. Conditions: Homo sapiens, 24 hours treatment; for Emax: agonist mode, read-out: % Efficacy; for EC50: T47D, 24 h, test compounds. As for the experimental part: 5-(4,4-dimethyl-2-thioxo-1,4-dihydro-2H-3,1-benzoxazin-6-yl)-1-methyl-1H-pyrrole-2-carbothioamide (1) and 5-(4,4-dimethyl-2-oxo-1,4-dihydro-2H-3,1-benzoxazin-6-yl)-1-methyl-1H-pyrrole-2-carbothioamide (2) were tested in a T47D cytosol alkaline phosphatase assay (Table 1). The purpose of this functional assay was to identify progestins or antiprogestins by determining the compound's effect on alkaline phosphatase activity in T47D cells.
(i) Culture Medium: • DMEM:F12 (1:1) (GIBCO, BRL) supplemented with 5% (v/v) charcoal stripped fetal bovine serum (not heat-inactivated), 100 U/mL penicillin, 100 μg/mL streptomycin, and 2 mM the GlutaMax™ reagent (GIBCO, BRL).
(ii) Alkaline Phosphatase Assay Buffer: • I. 0.1 M Tris-HCl, pH 9.8, containing 0.2% the Triton™ reagent X-100 • II. 0.1 M Tris-HCl, pH 9.8 containing 4 mM p-nitrophenyl phosphate (Sigma).
(iii) Cell Culture and Treatment: • Frozen T47D cells were thawed in a 37° C. water bath and diluted to 280,000 cells/mL in culture medium. To each well in a 96-well plate (Falcon, Becton Dickinson Labware), 180 μL of diluted cell suspension was added. Twenty μL of reference or test compounds diluted in the culture medium was then added to each well. When testing for progestin antagonist activity, reference antiprogestins or test compounds were added in the presence of 1 nM progesterone. The cells were incubated at 37° C. in a 5% CO2/humidified atmosphere for 24 hours.
(iv) Alkaline Phosphatase Enzyme Assay: • At the end of treatment, the medium was removed from the plate and 50 μL of assay buffer I was added to each well. The plates were shaken in a titer plate shaker for 15 minutes. Then 150 μL of assay buffer II was added to each well. Optical density measurements were taken at 5 minute intervals for 30 minutes at a test wavelength of 405 nm.
(v) Analysis of Results: • Analysis of dose-response data: For reference and test compounds, a dose response curve is generated for dose (X-axis) vs. the rate of enzyme reaction (slope) (Y-axis). Square root-transformed data are used for analysis of variance and nonlinear dose response curve fitting for both agonist and antagonist modes. Huber weighting is used to downweight the effects of outliers. EC50 or IC50 values are calculated from the retransformed values. JMP software (SAS Institute, Inc.) is used for both one-way analysis of variance and non-linear dose response analyses in both single dose and dose response studies.
(vi) Reference Compounds: • Progesterone and trimegestone are reference progestins and RU486 was the reference antiprogestin. All reference compounds are run in full dose response curves and the EC50 or IC50 values calculated.

The test system is the same in data set [3]. Description: T47D alkaline phosphatase assay (antiprogestin/antagonist mode, in the presence of 1 nM progesterone). Format: cell-based. Conditions: Homo sapiens, reference antiprogestin, three independent experiments (Exp 1-3), read-out: Estimated IC50. As for the experimental part: 0.1 M Tris-HCl, pH 9.8 containing 4 mM p-nitrophenyl phosphate (Sigma). […] To each well in a 96-well plate (Falcon, Becton Dickinson Labware), 180 μL of diluted cell suspension was added. Twenty μL of reference or test compounds diluted in the culture medium was then added to each well. When testing for progestin antagonist activity, reference antiprogestins or test compounds were added in the presence of 1 nM progesterone. The cells were incubated at 37° C. in a 5% CO2/humidified atmosphere for 24 hours. […] The plates were shaken in a titer plate shaker for 15 minutes. Then 150 μL of assay buffer II was added to each well. […] Square root-transformed data are used for analysis of variance and nonlinear dose response curve fitting for both agonist and antagonist modes. Huber weighting is used to downweight the effects of outliers. EC50 or IC50 values are calculated from the retransformed values.

Values joined by “and” are separate entries in the source; they are usually repeats but may differ in a detail not shown here. Identical values can stand only once.

`Cn1c(C(N)=S)ccc1-c1ccc2c(c1)C(C)(C)OC(=S)N2` [Compound 1, 5-(4,4-dimethyl-2-thioxo-1,4-dihydro-2H-3,1-benzoxazin-6-yl)-1-methyl-1H-pyrrole-2-carbothioamide]: the “Solubility in dimethylsulfoxide (DMSO)” value in data set [1] was “sparingly soluble”. Besides, in data set [2], the Emax was 60% and the 50% effective concentration (EC50) was found to be 0.2 nM.

On to `CC#C[C@]1(O)CC[C@H]2[C@@H]3CCC4=CC(=O)CCC4=C3[C@@H](c3ccc(N(C)C)cc3)C[C@@]21C` [RU486], for which, in data set [3], the IC50 is 0.103 nM and 0.12 nM.

For `Cn1c(C(N)=S)ccc1-c1ccc2c(c1)C(C)(C)OC(=O)N2` [Compound 2, 5-(4,4-dimethyl-2-oxo-1,4-dihydro-2H-3,1-benzoxazin-6-yl)-1-methyl-1H-pyrrole-2-carbothioamide], in data set [2], the Emax came to 72% and the EC50 worked out at 1.9 nM.
